Values belong to the compound of their own block, whether it stands above or below them.
Experiments:
Assay in all cases: KINOMEscan competition binding
Details in all cases: compound 10.0 µM
[1] = target: BMPR2 (human) (UniProt Q13873)
[2] = target: LIMK1 (human) (UniProt P53667)
[3] = target: PRKCD (human) (UniProt Q05655)
[4] = target: STK4 (human) (UniProt Q13043)
[5] = target: ALK (human) (UniProt Q9UM73)
[6] = target: LIMK2 (human) (UniProt P53671)
[7] = target: MAPK1 (human) (UniProt P28482)
[8] = target: ITK (human) (UniProt Q08881)
[9] = target: ICK (human) (UniProt Q9UPZ9)
ICK (human), sequence (Q9UPZ9 whole entry, looked up): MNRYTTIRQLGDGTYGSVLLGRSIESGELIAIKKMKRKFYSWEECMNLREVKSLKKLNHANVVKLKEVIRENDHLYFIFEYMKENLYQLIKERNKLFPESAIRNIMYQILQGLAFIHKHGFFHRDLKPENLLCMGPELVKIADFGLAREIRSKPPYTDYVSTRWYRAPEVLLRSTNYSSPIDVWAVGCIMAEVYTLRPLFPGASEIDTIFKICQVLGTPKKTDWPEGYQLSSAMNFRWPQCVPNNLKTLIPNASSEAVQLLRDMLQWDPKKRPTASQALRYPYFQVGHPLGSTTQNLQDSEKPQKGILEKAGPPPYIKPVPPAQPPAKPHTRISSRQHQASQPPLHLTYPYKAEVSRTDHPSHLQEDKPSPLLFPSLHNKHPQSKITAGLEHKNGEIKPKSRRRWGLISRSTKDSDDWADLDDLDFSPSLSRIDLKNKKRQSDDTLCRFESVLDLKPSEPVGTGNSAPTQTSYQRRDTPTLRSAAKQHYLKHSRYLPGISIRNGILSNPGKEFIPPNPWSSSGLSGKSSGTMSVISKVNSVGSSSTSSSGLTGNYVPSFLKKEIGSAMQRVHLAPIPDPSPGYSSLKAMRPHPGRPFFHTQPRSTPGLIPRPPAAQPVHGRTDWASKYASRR

[10] = target: CSNK2A2 (human) (UniProt P19784)
CSNK2A2 (human), sequence (P19784 whole entry, looked up): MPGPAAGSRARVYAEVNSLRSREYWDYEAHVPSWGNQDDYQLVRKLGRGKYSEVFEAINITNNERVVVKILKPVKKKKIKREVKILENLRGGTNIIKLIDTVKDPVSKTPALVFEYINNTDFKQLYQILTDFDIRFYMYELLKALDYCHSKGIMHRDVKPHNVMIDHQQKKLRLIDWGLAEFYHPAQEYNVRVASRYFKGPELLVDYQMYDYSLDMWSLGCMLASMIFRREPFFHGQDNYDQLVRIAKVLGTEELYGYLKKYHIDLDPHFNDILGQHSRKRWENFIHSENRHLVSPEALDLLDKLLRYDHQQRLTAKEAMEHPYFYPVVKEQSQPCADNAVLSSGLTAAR

[11] = target: NEK7 (human) (UniProt Q8TDX7)
[12] = target: FRK (human) (UniProt P42685)
[13] = target: RIOK1 (human) (UniProt Q9BRS2)
[14] = target: MELK (human) (UniProt Q14680)
[15] = target: EPHB2 (human) (UniProt P29323)
[16] = target: MINK1 (human) (UniProt Q8N4C8)
[17] = target: RPS6KA6 KD1 (human) (UniProt Q9UK32)
[18] = system: ABL1 (human), P00519 [F317L]
[19] = system: ABL1 (human), P00519 [H396P]
[20] = target: STK16 (human) (UniProt O75716)
[21] = target: TAOK3 (human) (UniProt Q9H2K8)
[22] = target: CLK2 (human) (UniProt P49760)
[23] = target: RPS6KA1 KD1 (human) (UniProt Q15418)
[24] = target: DYRK1B (human) (UniProt Q9Y463)
[25] = system: RET (human), P07949 [V804M]
[26] = target: STK32C (human) (UniProt Q86UX6)
STK32C (human), sequence (Q86UX6 whole entry, looked up): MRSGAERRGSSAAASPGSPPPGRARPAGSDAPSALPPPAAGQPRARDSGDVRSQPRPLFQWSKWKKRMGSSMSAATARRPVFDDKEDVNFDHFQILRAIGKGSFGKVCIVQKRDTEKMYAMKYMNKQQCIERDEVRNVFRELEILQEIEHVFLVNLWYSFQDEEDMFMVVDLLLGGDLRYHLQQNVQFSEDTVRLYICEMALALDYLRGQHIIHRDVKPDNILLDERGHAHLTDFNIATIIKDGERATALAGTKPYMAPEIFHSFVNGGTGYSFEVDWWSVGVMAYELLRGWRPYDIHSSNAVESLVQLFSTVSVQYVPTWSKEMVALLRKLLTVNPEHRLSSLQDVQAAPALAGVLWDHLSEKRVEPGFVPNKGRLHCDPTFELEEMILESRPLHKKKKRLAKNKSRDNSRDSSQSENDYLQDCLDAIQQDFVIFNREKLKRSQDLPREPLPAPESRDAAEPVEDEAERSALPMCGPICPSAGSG

[27] = target: TEC (human) (UniProt P42680)
TEC (human), sequence (P42680 whole entry, looked up): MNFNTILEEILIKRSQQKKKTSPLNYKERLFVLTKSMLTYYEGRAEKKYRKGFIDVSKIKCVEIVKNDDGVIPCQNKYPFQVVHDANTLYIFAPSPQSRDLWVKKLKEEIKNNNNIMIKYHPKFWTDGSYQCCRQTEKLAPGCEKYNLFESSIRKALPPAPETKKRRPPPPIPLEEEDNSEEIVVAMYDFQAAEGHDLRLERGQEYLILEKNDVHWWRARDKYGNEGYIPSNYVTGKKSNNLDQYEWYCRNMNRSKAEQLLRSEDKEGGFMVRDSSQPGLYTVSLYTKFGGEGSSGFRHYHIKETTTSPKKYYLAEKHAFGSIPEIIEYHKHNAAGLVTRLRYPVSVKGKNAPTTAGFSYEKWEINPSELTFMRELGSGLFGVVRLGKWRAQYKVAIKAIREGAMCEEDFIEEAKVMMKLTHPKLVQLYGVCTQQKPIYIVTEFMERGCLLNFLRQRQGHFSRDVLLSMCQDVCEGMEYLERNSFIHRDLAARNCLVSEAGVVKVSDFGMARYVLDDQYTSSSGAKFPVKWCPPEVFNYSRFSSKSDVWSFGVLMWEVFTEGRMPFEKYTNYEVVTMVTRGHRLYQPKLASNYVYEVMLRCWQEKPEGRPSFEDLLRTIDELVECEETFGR

[28] = target: MAP2K3 (human) (UniProt P46734)
MAP2K3 (human), sequence (P46734 whole entry, looked up): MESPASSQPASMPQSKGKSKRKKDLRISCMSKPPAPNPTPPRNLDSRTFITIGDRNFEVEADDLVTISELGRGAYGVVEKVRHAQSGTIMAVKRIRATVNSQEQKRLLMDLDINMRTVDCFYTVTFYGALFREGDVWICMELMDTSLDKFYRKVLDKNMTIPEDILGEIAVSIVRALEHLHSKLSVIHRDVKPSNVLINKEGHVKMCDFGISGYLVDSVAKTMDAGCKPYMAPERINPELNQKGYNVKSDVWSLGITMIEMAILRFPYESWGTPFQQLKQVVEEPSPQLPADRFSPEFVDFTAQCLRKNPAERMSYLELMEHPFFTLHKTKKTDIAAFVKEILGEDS

[29] = target: PTK2B (human) (UniProt Q14289)
PTK2B (human), sequence (Q14289 whole entry, looked up): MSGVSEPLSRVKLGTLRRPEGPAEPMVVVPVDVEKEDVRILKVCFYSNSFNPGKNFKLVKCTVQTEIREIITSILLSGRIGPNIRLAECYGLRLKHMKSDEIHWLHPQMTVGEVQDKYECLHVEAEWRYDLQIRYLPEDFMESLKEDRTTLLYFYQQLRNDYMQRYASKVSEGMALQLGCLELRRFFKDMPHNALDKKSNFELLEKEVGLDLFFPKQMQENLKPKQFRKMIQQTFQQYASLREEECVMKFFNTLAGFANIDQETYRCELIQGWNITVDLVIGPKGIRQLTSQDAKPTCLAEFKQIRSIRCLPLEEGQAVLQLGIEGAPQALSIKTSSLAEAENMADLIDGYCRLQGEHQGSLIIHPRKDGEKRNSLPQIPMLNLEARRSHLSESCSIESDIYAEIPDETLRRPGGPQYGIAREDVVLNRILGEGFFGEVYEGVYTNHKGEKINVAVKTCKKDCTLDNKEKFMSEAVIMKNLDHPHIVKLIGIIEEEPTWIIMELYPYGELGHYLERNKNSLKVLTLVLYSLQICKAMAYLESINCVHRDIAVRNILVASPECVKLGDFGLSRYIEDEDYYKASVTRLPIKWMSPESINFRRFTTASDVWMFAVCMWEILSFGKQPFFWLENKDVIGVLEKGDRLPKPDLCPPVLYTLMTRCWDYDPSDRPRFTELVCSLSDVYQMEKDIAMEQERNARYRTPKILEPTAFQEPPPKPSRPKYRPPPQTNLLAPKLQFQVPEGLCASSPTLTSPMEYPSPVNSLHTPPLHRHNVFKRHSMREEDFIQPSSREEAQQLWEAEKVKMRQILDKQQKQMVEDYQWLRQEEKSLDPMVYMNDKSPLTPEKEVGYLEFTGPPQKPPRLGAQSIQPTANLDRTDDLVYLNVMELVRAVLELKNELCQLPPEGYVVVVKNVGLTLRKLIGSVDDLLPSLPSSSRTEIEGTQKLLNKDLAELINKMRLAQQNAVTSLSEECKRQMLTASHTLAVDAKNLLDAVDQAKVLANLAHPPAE

[30] = target: FYN (human) (UniProt P06241)
[31] = target: HUNK (human) (UniProt P57058)
[32] = target: MYO3B (human) (UniProt Q8WXR4)
[33] = target: STK11 (human) (UniProt Q15831)
STK11 (human), sequence (Q15831 whole entry, looked up): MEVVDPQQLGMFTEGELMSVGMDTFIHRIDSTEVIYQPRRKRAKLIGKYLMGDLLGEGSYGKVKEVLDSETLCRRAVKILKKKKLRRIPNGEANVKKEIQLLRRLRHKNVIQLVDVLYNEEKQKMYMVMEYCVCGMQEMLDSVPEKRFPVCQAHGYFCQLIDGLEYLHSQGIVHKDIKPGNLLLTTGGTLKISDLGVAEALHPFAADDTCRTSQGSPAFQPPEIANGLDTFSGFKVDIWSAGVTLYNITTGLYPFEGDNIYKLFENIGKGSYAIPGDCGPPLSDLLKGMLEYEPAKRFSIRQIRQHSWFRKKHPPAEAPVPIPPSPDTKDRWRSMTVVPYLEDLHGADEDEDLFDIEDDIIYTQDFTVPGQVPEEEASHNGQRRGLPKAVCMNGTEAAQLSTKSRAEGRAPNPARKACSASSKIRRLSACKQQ

[34] = target: PIK3CA (human) (UniProt P42336)
[35] = target: TGFBR2 (human) (UniProt P37173)
[36] = target: GRK4 (human) (UniProt P32298)
[37] = target: CSNK1G1 (human) (UniProt Q9HCP0)
[38] = target: MAP2K2 (human) (UniProt P36507)
MAP2K2 (human), sequence (P36507 whole entry, looked up): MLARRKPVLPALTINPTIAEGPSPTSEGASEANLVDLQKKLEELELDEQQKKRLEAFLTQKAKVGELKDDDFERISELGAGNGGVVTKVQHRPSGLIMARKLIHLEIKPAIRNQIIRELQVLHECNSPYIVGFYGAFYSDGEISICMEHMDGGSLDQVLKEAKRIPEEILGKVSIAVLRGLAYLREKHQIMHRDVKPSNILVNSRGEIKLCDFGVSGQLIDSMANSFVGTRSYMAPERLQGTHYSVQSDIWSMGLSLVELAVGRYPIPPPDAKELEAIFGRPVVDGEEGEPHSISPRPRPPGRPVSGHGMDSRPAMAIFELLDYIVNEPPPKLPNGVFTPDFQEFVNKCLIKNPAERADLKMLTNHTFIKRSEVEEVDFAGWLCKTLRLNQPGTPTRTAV

[39] = system: RET (human), P07949 [M918T]
[40] = target: ACVRL1 (human) (UniProt P37023)
[41] = target: MLTK (human) (UniProt Q9NYL2)
[42] = target: PKN2 (human) (UniProt Q16513)

LIMK2 (human), sequence (P53671 whole entry, looked up): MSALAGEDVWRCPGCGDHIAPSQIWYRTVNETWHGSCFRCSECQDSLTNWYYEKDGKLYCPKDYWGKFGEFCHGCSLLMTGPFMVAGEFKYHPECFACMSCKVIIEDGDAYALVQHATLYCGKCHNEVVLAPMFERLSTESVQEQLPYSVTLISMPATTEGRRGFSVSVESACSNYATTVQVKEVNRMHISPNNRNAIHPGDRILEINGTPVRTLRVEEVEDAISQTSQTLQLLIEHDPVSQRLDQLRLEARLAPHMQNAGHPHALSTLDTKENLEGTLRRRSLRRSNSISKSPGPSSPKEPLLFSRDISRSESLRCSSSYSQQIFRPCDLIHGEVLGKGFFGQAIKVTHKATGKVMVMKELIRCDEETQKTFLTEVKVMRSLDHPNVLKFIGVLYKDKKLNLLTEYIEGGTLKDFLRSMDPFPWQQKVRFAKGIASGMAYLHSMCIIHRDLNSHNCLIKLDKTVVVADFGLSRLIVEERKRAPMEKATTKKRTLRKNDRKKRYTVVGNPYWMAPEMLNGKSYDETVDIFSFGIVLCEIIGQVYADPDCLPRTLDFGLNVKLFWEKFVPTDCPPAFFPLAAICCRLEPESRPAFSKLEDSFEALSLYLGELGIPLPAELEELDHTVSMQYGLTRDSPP

kinase still bound, per cent of control [1]: 90%
kinase still bound, per cent of control [2]: 100%
kinase still bound, per cent of control [3]: 100%
kinase still bound, per cent of control [4]: 100%
kinase still bound, per cent of control [5]: 100%
kinase still bound, per cent of control [6]: 100%
kinase still bound, per cent of control [7]: 100%
kinase still bound, per cent of control [8]: 100%
kinase still bound, per cent of control [9]: 39%
kinase still bound, per cent of control [10]: 100%
kinase still bound, per cent of control [11]: 98%
kinase still bound, per cent of control [12]: 100%
kinase still bound, per cent of control [13]: 100%
kinase still bound, per cent of control [14]: 40%
kinase still bound, per cent of control [15]: 100%
kinase still bound, per cent of control [16]: 75%
kinase still bound, per cent of control [17]: 89%
kinase still bound, per cent of control [18]: 100%
kinase still bound, per cent of control [19]: 100%
kinase still bound, per cent of control [20]: 91%
kinase still bound, per cent of control [21]: 13%
kinase still bound, per cent of control [22]: 40%
kinase still bound, per cent of control [23]: 100%
kinase still bound, per cent of control [24]: 100%
kinase still bound, per cent of control [25]: 90%
kinase still bound, per cent of control [26]: 97%
kinase still bound, per cent of control [27]: 100%
kinase still bound, per cent of control [28]: 87%
kinase still bound, per cent of control [29]: 100%
kinase still bound, per cent of control [30]: 100%
kinase still bound, per cent of control [31]: 100%
kinase still bound, per cent of control [32]: 100%
kinase still bound, per cent of control [33]: 100%
kinase still bound, per cent of control [34]: 100%
kinase still bound, per cent of control [35]: 100%
kinase still bound, per cent of control [36]: 100%
kinase still bound, per cent of control [37]: 49%
kinase still bound, per cent of control [38]: 100%
kinase still bound, per cent of control [39]: 100%
kinase still bound, per cent of control [40]: 100%
Compound: Cc1cnc(-c2cnc(NCCNc3ccc(C#N)cn3)nc2-c2ccc(Cl)cc2Cl)[nH]1

kinase still bound, per cent of control [1]: 46%
kinase still bound, per cent of control [2]: 59%
kinase still bound, per cent of control [3]: 100%
kinase still bound, per cent of control [4]: 6.5%
kinase still bound, per cent of control [5]: 44%
kinase still bound, per cent of control [6]: 92%
kinase still bound, per cent of control [7]: 100%
kinase still bound, per cent of control [8]: 11%
kinase still bound, per cent of control [9]: 0.1%
kinase still bound, per cent of control [10]: 8%
kinase still bound, per cent of control [11]: 100%
kinase still bound, per cent of control [12]: 2.6%
kinase still bound, per cent of control [13]: 5.1%
kinase still bound, per cent of control [14]: 8.7%
kinase still bound, per cent of control [15]: 77%
kinase still bound, per cent of control [16]: 6.2%
kinase still bound, per cent of control [17]: 51%
kinase still bound, per cent of control [18]: 5.2%
kinase still bound, per cent of control [19]: 4.5%
kinase still bound, per cent of control [20]: 0.8%
kinase still bound, per cent of control [21]: 71%
kinase still bound, per cent of control [41]: 26%
kinase still bound, per cent of control [22]: 8.2%
kinase still bound, per cent of control [23]: 3.1%
kinase still bound, per cent of control [24]: 13%
kinase still bound, per cent of control [25]: 0%
kinase still bound, per cent of control [26]: 100%
kinase still bound, per cent of control [27]: 100%
kinase still bound, per cent of control [42]: 29%
kinase still bound, per cent of control [28]: 33%
kinase still bound, per cent of control [29]: 9.3%
kinase still bound, per cent of control [30]: 1.6%
kinase still bound, per cent of control [31]: 79%
kinase still bound, per cent of control [32]: 100%
kinase still bound, per cent of control [33]: 2.7%
kinase still bound, per cent of control [34]: 93%
kinase still bound, per cent of control [35]: 58%
kinase still bound, per cent of control [36]: 1.8%
kinase still bound, per cent of control [37]: 39%
kinase still bound, per cent of control [38]: 26%
kinase still bound, per cent of control [39]: 0%
kinase still bound, per cent of control [40]: 100%
Compound: O=C1Nc2cc(Br)ccc2/C1=C1/Nc2ccccc2/C1=N\O

Reference: the kinase profiling compilation of Christmann-Franck et al. (2016)
